Test results: ChEMBL document CHEMBL4342420, “Discovery of AM-6494: A Potent and Orally Efficacious β-Site Amyloid Precursor Protein Cleaving Enzyme 1 (BACE1) Inhibitor with in Vivo Selectivity over BACE2” (J Med Chem, 2020)

What was measured:
[1] = Free plasma concentration in depilated mouse at 10 mg/kg, po administered once daily for 13 days measured 24 hrs post-last dose; type: ADME, organism-based; conditions: in vivo
[2] = Free plasma concentration in depilated mouse at 30 mg/kg, po administered once daily for 13 days measured 24 hrs post-last dose; type: ADME, organism-based; conditions: in vivo
[3] = Free plasma concentration in depilated mouse at 120 mg/kg, po administered once daily for 13 days measured 24 hrs post-last dose; type: ADME, organism-based; conditions: in vivo
[4] = Stability in human liver microsomes at 1 uM measured after 30 mins in presence of NADPH; type: ADME, Microsome; conditions: read-out: Stability
[5] = Stability in rat liver microsomes at 1 uM measured after 30 mins in presence of NADPH; type: ADME, Microsome; conditions: read-out: Stability
[6] = Free plasma concentration in depilated mouse at 100 mg/kg, po administered once daily for 13 days measured 24 hrs post-last dose; type: ADME, organism-based; conditions: in vivo
[7] = Volume of distribution at steady state in Beagle dog at 1 mg/kg, iv; type: ADME, organism-based, Canis lupus familiaris; conditions: in vivo, read-out: Vdss
[8] = Stability in dog liver microsomes at 0.5 uM measured after 30 mins in presence of NADPH; type: ADME, Canis lupus familiaris, Microsome; conditions: read-out: Stability
[9] = Clearance in Beagle dog at 1 mg/kg, iv; type: ADME, organism-based, Canis lupus familiaris; conditions: in vivo
[10] = Clearance in rat at 1 mg/kg, iv; type: ADME, organism-based; conditions: in vivo
[11] = Volume of distribution at steady state in rat at 1 mg/kg, iv; type: ADME, organism-based; conditions: in vivo, read-out: Vdss
[12] = Half life in rat at 1 mg/kg, iv; type: ADME, organism-based; conditions: in vivo
[13] = AUCt in rat at 3 mg/kg, po; type: ADME, organism-based; conditions: in vivo
[14] = Oral bioavailability in rat at 3 mg/kg; type: ADME, organism-based; conditions: in vivo
[15] = Half life in Beagle dog at 1 mg/kg, iv; type: ADME, organism-based, Canis lupus familiaris; conditions: in vivo
[16] = AUCt in Beagle dog at 10 mg/kg, po; type: ADME, organism-based, Canis lupus familiaris; conditions: in vivo
[17] = Oral bioavailability in Beagle dog at 10 mg/kg; type: ADME, organism-based, Canis lupus familiaris; conditions: in vivo
[18] = Stability in monkey liver microsomes at 0.5 uM measured after 30 mins in presence of NADPH; type: ADME, Macaca mulatta, Microsome; conditions: rhesus monkey, read-out: Stability
[19] = Clearance in monkey at 1 mg/kg, iv; type: ADME, organism-based, Macaca mulatta; conditions: rhesus monkey, in vivo
[20] = Volume of distribution at steady state in monkey at 1 mg/kg, iv; type: ADME, organism-based, Macaca mulatta; conditions: rhesus monkey, in vivo, read-out: Vdss
[21] = Half life in monkey at 1 mg/kg, iv; type: ADME, organism-based, Macaca mulatta; conditions: rhesus monkey, in vivo
[22] = AUCt in cynomolgus monkey at 3 mg/kg, po; type: ADME, organism-based, Macaca fascicularis; conditions: in vivo
[23] = Oral bioavailability in cynomolgus monkey at 3 mg/kg; type: ADME, organism-based, Macaca fascicularis; conditions: in vivo

## NC1=N[C@@]2(CO1)c1cc(-c3cccnc3F)ccc1Oc1c2cc(C2=CCCOC2)nc1F
[1]
  Cp(f): 38 nM
[2]
  Cp(f): 88 nM
[3]
  Cp(f): 328 nM

## C#CCOc1cnc(C(=O)Nc2cc(F)c(F)c([C@@]3(C)N=C(N)S[C@@]4(CF)C[C@H]43)c2)cn1
[4]
  microsomal CLint at 1 µM: 76 µL/min/mg
[5]
  microsomal CLint at 1 µM: 87 µL/min/mg

## C[C@]1(c2cc(NC(=O)c3ccc(Cl)cn3)cc(F)c2F)N=C(N)S[C@@]2(C(N)=O)C[C@H]21
[4]
  microsomal CLint at 1 µM: < 14 µL/min/mg
[5]
  microsomal CLint at 1 µM: < 14 µL/min/mg

## COC[C@]12C[C@H]1[C@@](C)(c1cc(NC(=O)c3cnc(OCCC(F)(F)F)cn3)cc(F)c1F)N=C(N)S2
[4]
  microsomal CLint at 1 µM: 29 µL/min/mg
[5]
  microsomal CLint at 1 µM: 156 µL/min/mg

## C#CCOc1cnc(C(=O)Nc2cc(F)c(F)c([C@@]3(C)N=C(N)S[C@@]4(COC)C[C@H]43)c2)cn1
[4]
  microsomal CLint at 1 µM: 41 µL/min/mg
[5]
  microsomal CLint at 1 µM: 84 µL/min/mg
[6]
  Cp(f): 32 nM
[7]
  Vd: 3.2 L/kg
[8]
  microsomal CLint at 0.5 µM: 62 µL/min/mg
[9]
  clearance: 15 mL/min/kg
[10]
  clearance: 21.7 mL/min/kg
[11]
  Vd: 1.7 L/kg
[12]
  half-life: 1.5 h
[13]
  AUCt: 2.4 µM·h
[14]
  bioavailability: 48%
[15]
  half-life: 2 h
[16]
  AUCt: 22 µM·h
[17]
  bioavailability: 100%
[18]
  microsomal CLint at 0.5 µM: 146 µL/min/mg
[19]
  clearance: 35 mL/min/kg
[20]
  Vd: 17 L/kg
[21]
  half-life: 8.3 h
[22]
  AUCt: 2.3 µM·h
[23]
  bioavailability: 28%
